In patent US11066455B2, “Tmem100 peptides and variants thereof and their use in treating or preventing diseases or conditions” (The Johns Hopkins University, priority 2014, dated 2021):
Entries after “also recorded” stand apart in the source; their conditions may differ. Like-named read-outs stand apart in the source and are kept apart here. Peptide text beside a SMILES is read from it. * marks the point of attachment. Myristoyl = CCCCCCCCCCCCCC(=O)*

Columns and labels:
TRPA1 [1] = biological target: T1, TRPA1 (UniProt O75762); assay: Calcium imaging of HEK293T cells expressing TRPA1 and TRPV1 (MO or CA); type: cell-based
T1 construct: other: cells expressing A1+V1; other: cells expressing A1+V1+Tmem100
Procedure: (§1) Calcium imaging assays were performed as previously described (Liu et al., 2009). Cells were loaded with 2 μM fura 2-acetomethoxy ester (Molecular Probes) for 30 min in the dark at room temperature or for 45 minutes at 37° C. for DRG and cell lines, respectively. After washing, cells were imaged at 340 and 380 nm excitation to detect intracellular free calcium under a fluorescent microscope (Nikon Eclipse TE2000-S) and Lambda 10B shutter (Sutter Instrument). The cells were bathed in calcium imaging buffer (pH 7.45, 130 mM NaCl, 3 mM KCl, 2.5 mM CaCl2, 10 mM HEPES, 10 mM glucose, 1.2 mM NaHCO3, with sucrose to increase osmolarity to 290 mOsm). The reagents and buffers were applied through a gravity perfusion system at a rate of […], including mustard oil (Sigma 377430), cinnamaldehyde (Sigma C80687), menthol (Sigma M2780), and capsaicin (Sigma M2028). Cells with high baseline 340/380 values (>1.5) were excluded for analysis. For DRG neurons, IB4 staining was performed in the chamber with the dilution of 1:200 (Molecular Probes 121412) for 160 seconds before washing off at the end of each test. Images were processed and analyzed with NIS-Elements BR 2.30 software (Nikon). A responsive cell was defined as one that with greater than a 20% increase in the 340/380 ratio above the baseline. Intracellular calibration for calcium was performed as previously described (Akopian et al., 2007). The data was analyzed with the experimenter blinded to the genotypes or constructs transfected.
(§2) DRG from 3 to 4-week old mice were collected in cold DH10 medium (90% DMEM/F-12, 10% FBS, 100 U/ml penicillin, and 100 μg/ml Streptomycin, Gibco) and treated with enzyme solution in HBSS containing collagenase (1.65 mg/mL, Worthington CLS I) and dispase (3.55 mg/mL, GIBCO 17105-041) at 37° C. for 30 minutes. After trituration and centrifugation, cells were resuspended in DH10, plated on glass coverslips coated with poly-D-lysine (0.5 mg/ml, Stoughton, Mass.) and laminin (10 μg/ml, Invitrogen), and cultured overnight in an incubator at 37° C. The neurons were tested within 24 hours. HEK293T, COS-7, and CHO cells were cultured in a medium consisting of 90% DMEM, 10% FBS, 100 U/mL penicillin, and 100 μg/ml Streptomycin. GlutaMAX (Gibco 35050-061) was also added for CHO cells. For calcium imaging, the cells were plated on glass coverslips coated with poly-D-lysine (0.5 mg/ml, Stoughton, Mass.). In the HEK cell studies the denominator is the cells expressing both TRPA1, TRPV1, and the designated constructs (i.e. Tmem100 or Tmem100-3Q mutant). mCherry:TRPV1:Tmem100 was transfected in 1:8:8 ratio into TRPA1 stable cell line (obtained from N. Tigue from GlaxoSmithKline) and used mCherry as the marker for the cells expressing the constructs 18 hours after transfection with Lipofectamine 2000. The transfection efficiency for Tmem100+TRPV1+TRPA1 triple-positive cells is 27±3%. This efficiency was determined by mCherry(+) divided by total number of cells in the bright fields.
(§3) The sequence from the last 28 amino acids of the C-terminus of the Tmem100-3Q mutant protein was synthesized and myristoylated at its N-terminus (myr-[…]-COOH) (SEQ ID NO: 8) by Twentyfirst Century Biochemicals. […] For the calcium imaging assay, the peptides were added to the calcium imaging buffer with a final concentration of 200 nM and incubated for at least […] at room temperature. For the mice behavioral assays, the peptides (5 μL, 2 mM) were injected subcutaneously in the hindpaw at least 30 minutes before testing. For the rat behavior assays, human T100-3Q (h-T100), a palmitoylated cell permeable peptide mutated based on the C terminus of human sequence in Tmem100, was applied. The sequence is Palmitoyl-[…]-COOH (SEQ ID NO: 7).

[2] = test system: neuropathic mechanical hypersensitivity in SNL rats; type: in vivo, rat
Description: An modified L5 SNL model was produced as described in previously (He et al., 2014; Shechter et al., 2013). Male Sprague-Dawley rats (200-350 g, Harlan, Indianapolis, Ind.) were anesthetized with 2% isoflurane. The left L5 spinal nerve was ligated with a 6-0 silk suture and cut distally. The muscle layer was closed with 4-0 chromic gut suture and the skin closed with metal clips. For intrathecal catheter implantation, a small slit was cut in the atlanto-occipital membrane of rats, into which a saline-filled piece of PE-10 tubing (6-7 cm) was inserted (He et al., 2014). […] Hypersensitivity to punctuate mechanical stimulation was determined with the up-down method by using a series of von Frey filaments (0.38-15.1 g) applied for 4-6 seconds to the test area on the plantar surface of the hindpaw (Chaplan et al., 1994; He et al., 2014). The PWT was determined according to the formula provided by Dixon (Dixon, 1980). […] HC-030031 was purchased from Tocris Bioscience (Bristol, UK). Both drugs were dissolved in 10% dimethylsulfoxide (DMSO), 5% Tween 80 and 85% sterile saline solution. The final working solution which was injected by intrathecal route contained <1% DMSO. The number of animals used in each study was based on experience with similar studies and power analysis calculations. Animals were randomized to the different treatment groups and blinded the experimenter to drug treatment to reduce selection and observation bias. After the experiments were completed, no data point was excluded. STATISTICA 6.0 software (StatSoft, Inc., Tulsa, Okla.) was used to conduct all statistical analyses. The Tukey honestly significant difference (HSD) post-hoc test was used to compare specific data points. Bonferroni correction was applied for multiple comparisons. Two-tailed tests were performed, and data are expressed as mean±SEM; P<0.05 was considered significant in all tests.
as §3

TRPA1 [3] = test system: T2, TRPA1; assay: Calcium imaging of HEK293T cells expressing TRPA1 and TRPV1 (MO or CA); type: cell-based
T2 construct: percentage of cells responsive to CA; other: shortened CPP 2 μM; CA 10 μM; HEK293 TRPA1+TRPV1; vs scrambled; percentage of cells responsive to MO; other: peptide 200 nM pre-treatment; 500 nM MO; HEK293T TRPA1+TRPV1; percentage of cells that respond to 100 nM MO and 10 μM CA; other: HEK293T TRPA1+TRPV1, Tmem100-3Q-transfected vs lacki; reduction in the percentage of cells responding to MO
Procedure: as §1, §2, §3

[4] = test system: paclitaxel (Taxol)-induced mechanical hyperalgesia in wild-type mice; assay: Paclitaxel-induced mechanical hyperalgesia; type: in vivo, mouse; conditions: day 7 post paclitaxel; intradermal injection of T100-Mut
Procedure: (§4) Mice were placed in a transparent plastic box (4.5×5×10 cm) on a metal mesh and acclimatized for 30 minutes prior to testing. Each mouse was tested more than 5 times at a specific force manually, and the threshold was determined by the lowest force needed to elicit responses more than 50% of the time.
Mice were injected with paclitaxel (Sigma T7191) intraperitoneally at the dose of 6 mg/kg, as previously described (Materazzi et al., 2012). Seven days after paclitaxel injection, the mice were assayed with Von Frey methods for mechanical hyperalgesia, both before and four hours after injection of cell permeable peptides.

[5] = test system: MO-induced pain in TRPV1-/- mice; assay: Mustard oil injection in TRPV1-/- mice; type: in vivo, mouse
Procedure: as §4
Mice were injected intradermally in the hind paw with 6 μL of 0.2% mustard oil (Sigma-Aldrich 377430) with Hamilton needles (80300). The mice were placed in a plexiglass cylinder, and the total time spent licking and flinching was recorded for the first 10 minutes after injection. Thirty and sixty minutes after injection, the mice were assayed with von Frey filaments for mechanical hyperalgesia.
The sequence from the last 28 amino acids of the C-terminus of the Tmem100-3Q mutant protein was synthesized and myristoylated at its N-terminus (myr-[…]-COOH) (SEQ ID NO: 8) by Twentyfirst Century Biochemicals. […] For the calcium imaging assay, the peptides were added to the calcium imaging buffer with a final concentration of 200 nM and incubated for at least […] at room temperature. For the mice behavioral assays, the peptides (5 μL, 2 mM) were injected subcutaneously in the hindpaw at least 30 minutes before testing. For the rat behavior assays, human T100-3Q (h-T100), a palmitoylated cell permeable peptide mutated based on the C terminus of human sequence in Tmem100, was applied. […]

[6] = test system: ongoing neuropathic pain in SNL rats; assay: Conditioned place preference test for ongoing pain in SNL rats; type: in vivo, rat; conditions: i.p.
Description: Ongoing, or spontaneous, pain, which is most bothersome to patients, is difficult to treat and difficult to study in animals. The conditioned place preference test has been successfully developed to reveal the presence of non-evoked, ongoing pain and pain relief based on the preference of an animal for the context paired with a pain-relief treatment. The conditioned place preference can also capture the aversive aspects of pain. Strikingly, many studies have shown that the rodent conditioned place preference test accurately reflects the effectiveness of human clinical treatments. Therefore, this test is a powerful approach to investigate the potential effectiveness of new treatments and mechanisms for relief of ongoing pain. Two previous studies have examined the role of TRPA1 in ongoing pain by the conditioned place preference test. […] Because the antagonists used in those studies (HC030031 and Chem5861528) target TRPA1 monomers, it is possible that T100-Mut can inhibit ongoing pain by modulating the TRPA1/V1 complex. This possibility was tested in rodents with SNL-induced ongoing pain using the conditioned place preference test. […] Systemic administration of gabapentin, an analgesic that is known to alleviate neuropathic pain, was used as a positive control (FIG. 16B).

[7] = biological target: TRPA1 (expressed in heterologous cells: CHO, HEK293T); assay: cell-based or functional assay
Chain of TRPA1 (expressed in heterologous cells: CHO, HEK293T) (Q8BLA8 whole entry): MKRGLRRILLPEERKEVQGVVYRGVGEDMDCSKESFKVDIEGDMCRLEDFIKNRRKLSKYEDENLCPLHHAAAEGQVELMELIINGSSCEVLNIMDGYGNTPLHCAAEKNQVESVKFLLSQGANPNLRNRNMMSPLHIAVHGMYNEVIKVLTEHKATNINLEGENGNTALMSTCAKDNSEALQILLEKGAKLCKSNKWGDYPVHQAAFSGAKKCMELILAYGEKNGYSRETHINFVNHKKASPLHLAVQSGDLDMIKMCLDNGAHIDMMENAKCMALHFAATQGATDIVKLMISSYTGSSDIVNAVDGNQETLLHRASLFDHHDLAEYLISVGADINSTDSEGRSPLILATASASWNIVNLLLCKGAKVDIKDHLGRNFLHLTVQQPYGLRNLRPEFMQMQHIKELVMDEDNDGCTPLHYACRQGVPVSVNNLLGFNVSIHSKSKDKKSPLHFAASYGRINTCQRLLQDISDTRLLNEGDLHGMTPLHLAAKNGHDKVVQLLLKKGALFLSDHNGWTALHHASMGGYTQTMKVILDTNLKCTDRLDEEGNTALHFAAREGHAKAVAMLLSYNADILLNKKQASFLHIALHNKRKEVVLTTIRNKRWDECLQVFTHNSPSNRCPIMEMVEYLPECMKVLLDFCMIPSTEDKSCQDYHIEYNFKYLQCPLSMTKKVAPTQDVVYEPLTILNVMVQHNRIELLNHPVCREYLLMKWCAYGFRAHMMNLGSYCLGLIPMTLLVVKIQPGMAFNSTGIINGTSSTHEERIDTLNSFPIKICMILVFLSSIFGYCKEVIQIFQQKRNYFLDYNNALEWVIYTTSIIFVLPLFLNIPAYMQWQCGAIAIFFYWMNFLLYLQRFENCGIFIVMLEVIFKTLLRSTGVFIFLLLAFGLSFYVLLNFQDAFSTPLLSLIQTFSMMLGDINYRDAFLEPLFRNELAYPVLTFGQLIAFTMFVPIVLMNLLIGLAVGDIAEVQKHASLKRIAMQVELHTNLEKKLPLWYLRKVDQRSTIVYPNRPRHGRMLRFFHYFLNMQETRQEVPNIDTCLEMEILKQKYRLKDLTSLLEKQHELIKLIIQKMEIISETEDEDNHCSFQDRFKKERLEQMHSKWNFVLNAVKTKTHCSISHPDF

O=CC=Cc1ccccc1 [CA, cinnamaldehyde, reference compound]
EC50 (TRPA1 [1]; cells expressing A1+V1): 57 µM | EC50 (TRPA1 [1]; cells expressing A1+V1+Tmem100): 21 µM

CC(C)c1ccc(NC(=O)Cn2cnc3c2c(=O)n(C)c(=O)n3C)cc1 [HC-030031, reference compound]
contralateral PWT after drug injection ([2]; intrathecal 10 μl): did not change significantly | ipsilateral paw withdrawal threshold (PWT) vs pre-drug ([2]; intrathecal 10 μl, h-T100 10-100 μM, HC-030031 10-200 μM, scrambled 100 μM): increased | EC50 ([2]; intrathecal, 10 μl, SNL rats, read-out: EC50 for inhibiting pain): 58.2 µM

CCCCCCCCCCCCCC(=O)N[C@@H](Cc1c[nH]c2ccccc12)C(=O)N[C@@H](CCCCN)C(=O)N[C@H](C(=O)N[C@@H](CCCNC(=N)N)C(=O)N[C@@H](CCC(N)=O)C(=O)N[C@@H](CCCNC(=N)N)C(=O)N[C@@H](CC(N)=O)C(=O)N[C@@H](CCCCN)C(=O)N[C@@H](CCCCN)C(=O)N[C@H](C(=O)N[C@@H](CCC(N)=O)C(=O)N[C@@H](CCC(N)=O)C(=O)N[C@@H](CCC(N)=O)C(=O)N[C@@H](CCC(=O)O)C(=O)N[C@@H](CO)C(=O)N[C@@H](CCC(N)=O)C(=O)N[C@H](C(=O)N[C@@H](C)C(=O)N[C@@H](CC(C)C)C(=O)N[C@H](C(=O)N[C@H](C(=O)N[C@@H](CC(N)=O)C(=O)N[C@@H](CCC(N)=O)C(=O)N[C@@H](CCCNC(=N)N)C(=O)N[C@@H](CS)C(=O)N[C@@H](CC(C)C)C(=O)N[C@@H](Cc1ccccc1)C(=O)N[C@@H](C)C(=O)O)C(C)C)C(C)C)[C@@H](C)O)C(C)C)C(C)C [T100-Mut] (Myristoyl-WKVRQRNKKVQQQESQTALVVNQRCLFA-OH)
reduction in the percentage of cells responding to MO (TRPA1 [3]; heterologous system, T100-Mut treatment vs scrambled): 65% | percentage of cells responsive to MO (TRPA1 [3]; peptide 200 nM pre-treatment, 500 nM MO, HEK293T TRPA1+TRPV1): 6±2.4% | paclitaxel-induced mechanical hyperalgesia [4]: attenuated; also recorded: alleviated | MO-induced acute pain in TRPV1-/- mice [5]: did not perturb; also recorded: no effect | MO-induced mechanical hyperalgesia in TRPV1-/- mice [5]: did not perturb; also recorded: no effect | efficacy and potency of inhibiting neuropathic pain compared with HC-030031 ([2]; SNL rats, intrathecal): comparable or better efficacy and potency | EC50 ([2]; rat, in vivo): 29.3 µM

NCC1(CC(=O)O)CCCCC1 [gabapentin, reference compound]
conditioned place preference: time in gabapentin-paired chamber, SNL rats ([6]; 60 mg/kg, saline-paired chamber as comparison): significantly increased | chamber preference in sham-operated rats ([6]; gabapentin 60 mg/kg, sham-operated): did not induce chamber preference

TRPV1 (expressed in heterologous cells: CHO, HEK293T) (receptor)
MO (10 µM)-evoked Ca2+ influx, CHO cells, with Tmem100-3Q co-expressed (1:1:4) [7]: 321 nM | MO (10 µM)-gated whole-cell current density, CHO cells, with Tmem100-3Q co-expressed (1:1:4) [7]: 39.2 pA/pF | MO (10 µM)-induced single-channel activity (NPo), CHO cells, with Tmem100-3Q co-expressed (1:1:4) [7]: 0.16 | MO (10 µM)-induced single-channel activity (NPo), CHO cells, with wild-type Tmem100 co-expressed (1:1:4) [7]: 1.05
